From US12171763B2, “Methods and compositions comprising a KRASG12C inhibitor and a PD-L1 binding antagonist for treating lung cancer” (Genentech, Inc., priority 2020, dated 2024)
Counter-ions that a name gives are not always drawn.

How the values were obtained:
[1] = system: KRAS^G12C-positive over KRAS^G12C-negative cancer cell lines; assay: Growth inhibition of KRAS G12C-positive versus KRAS G12C-negative cancer cell lines; type: cell-based
[2] = system: KRAS^G12C-positive cancer cell lines; assay: Mechanism of action studies in KRAS G12C-positive cancer cell lines; type: cell-based
[3] = system: KRAS^G12C-positive lung tumors; assay: Nonclinical xenograft models of KRAS G12C-positive lung tumors; type: in vivo
[4] = Risks associated with administration of Compound 1; settings: in vivo
[5] = system: CT26.KRAS12C-Clone #12:B2G9 Syngeneic Colorectal (CRC) Tumors; assay: Anti-tumor efficacy in CT26.KRAS12C-Clone #12:B2G9 syngeneic colorectal (CRC) tumor model; type: in vivo, Balb/c mice
Method: The combination of the adipate salt of Compound 1 with anti-PD-L1 monoclonal antibody (mAb) was assessed in the CRISPR-engineered CT26.KRAS12C-Clone #12:B2G9 mouse colorectal (CRC) syngeneic tumor model.
Test Agents. The adipate salt of Compound 1 was in a solution at a concentration of 7.5 mg/mL in 0.5% (w/v) methylcellulose. Anti-PD-L1 mAbs (Mu IgG1 anti-PD-L1 (6E11); hereafter referred to as anti-PD-L1) was in a solution in Histidine Buffer #8 ([…] Histidine Acetate, […] Sucrose, 0.02% Tween 20™, pH 5.5). The oral-dosed vehicle control was 0.5% (w/v) methylcellulose. Test agents were stored in a refrigerator set to maintain a temperature range of 4° C.-7° C. All treatments and vehicle control dosing solutions were prepared once a week for three weeks.
Female Balb/c mice that were 9-10 weeks old were obtained from Charles River Laboratory (Hollister, CA) weighing an average of 22 g. Only animals that appeared to be healthy and that were free of obvious abnormalities were used for the study. Mus musculus colon carcinoma CT26 cells were obtained from the American Type Culture Collection (Rockville, MD). CT26.KRAS12C-Clone #12:B2G9 is derived from CRISPR knock-in of G12C in CT26 cells. Cells were cultured in vitro, harvested in log-phase growth, and resuspended in Hank's Balanced Salt Solution (HBSS) containing Matrigel (BD Biosciences; San Jose, CA) at a 1:1 ratio. The cells were then implanted subcutaneously in the right lateral thorax of 70 Balb/c mice. Each mouse was injected with 0.1×10^6 cells in a volume of 100 μL. Tumors were monitored until they reached a mean tumor volume of 159-228 mm^3. Mice were distributed into six groups based on tumor volumes with n=8 mice per group. The mean tumor volume across all six groups was 198 mm^3 at the initiation of dosing.
[…] The MC vehicle and adipate salt of Compound 1 were administered on QD orally (PO) by gavage for 21 days in a volume of 100 μL. The isotope control mAbs and anti-PD-L1 mAbs were administered intravenously (IV) at 10 mg/kg for the first dose, and then dosed intraperitoneally (IP) at 5 mg/kg for subsequent doses on a twice weekly (BIW) schedule.
Tumor sizes and mouse body weights were recorded twice weekly over the course of the study. […]
Dose Preparation and Tumor and Body Weight Measurement. All concentrations were calculated based on a mean body weight of 25 g for the […] mouse strain used in this study. Tumor volumes were measured in two dimensions (length and width) using Ultra Cal-IV calipers (model 54-10-111; Fred V. Fowler Co.; Newton, MA) and analyzed using Excel, version 14.2.5 (Microsoft Corporation; Redmond WA). The tumor volume was calculated with the following formula: Tumor size(mm^3)=(longer measurement×shorter measurement^2)×0.5 […]

NSCLC = settings: patients in clinical studies, cited from earlier work

C=CC(=O)N1CCN(c2nc(OC[C@@H]3CCCN3C)nc3c(F)c(-c4nc(N)cc(C)c4C(F)(F)F)c(Cl)cc23)[C@@H](C)C1 (atropisomer, axis not shown) [Compound 1, 1-((S)-4-((R)-7-(6-amino-4-methyl-3-(trifluoromethyl)pyridin-2-yl)-6-chloro-8-fluoro-2-(((S)-1-methylpyrrolidin-2-yl)methoxy)quinazolin-4-yl)-3-methylpiperazin-1-yl)prop-2-en-1-one]
selectivity in growth inhibition [1]: over 20,000 fold | apoptosis induction [2]: apoptosis induction is observed | downstream MAPK pathway components (pERK, pS6) and KRAS target genes (DUSP6, SPRY4) [2]: inhibited | single-agent activity on tumor growth [3]: inhibits tumor growth | risks associated with administration [4]: diarrhea, nausea, vomiting, oral mucosal irritation, minimal to mild transaminase elevation, and phototoxicity

C=CC(=O)N1CCN(c2nc(OC[C@@H]3CCCN3C)nc3c(F)c(-c4nc(N)cc(C)c4C(F)(F)F)c(Cl)cc23)[C@@H](C)C1 (atropisomer, axis not shown) [adipate salt Compound 1, 1-((S)-4-((R)-7-(6-amino-4-methyl-3-(trifluoromethyl)pyridin-2-yl)-6-chloro-8-fluoro-2-(((S)-1-methylpyrrolidin-2-yl)methoxy)quinazolin-4-yl)-3-methylpiperazin-1-yl)prop-2-en-1-one]
partial responses (PRs) ([5]; fraction of mice, Compound 1 adipate 30 mg/kg PO QD, anti-PD-L1 10/5 mg/kg BIW): ⅜ | CR (complete response) ([5]; number of mice of 8, CR = 100% decrease in tumor volume, Compound 1 adipate 30 mg/kg, anti-PD-L1 10/5 mg/kg): 0 | PR (partial response) ([5]; number of mice of 8, PR = >50% decrease from initial tumor volume, Compound 1 adipate 30 mg/kg, anti-PD-L1 10/5 mg/kg): 3 | % TGI (estimated) ([5]; tumor growth inhibition based on AUC, relative to vehicle, Compound 1 adipate 30 mg/kg PO QD, anti-PD-L1 10 mg/kg IV first dose then 5 mg/kg IP BIW): 123%

C=CC(=O)N1CCN(c2nc(=O)n(-c3c(C)ccnc3C(C)C)c3nc(-c4c(O)cccc4F)c(F)cc23)[C@@H](C)C1 [AMG 510, sotorasib]
treatment-related adverse events (NSCLC; overall): 56.6 % of patients | Grade 3 events occurring in more than one patient (NSCLC): ALT increase, diarrhea, anemia, AST increase, and alkaline phosphatase increase | treatment-related Grade 3 or 4 event (NSCLC): 11.6 % of patients | treatment-related serious adverse event (NSCLC): 1.6 % of patients
